# Target: T1, human M1 receptor (hCHRM1) (Homo sapiens, UniProt P11229)
# T1 construct: expressed in transfected cells
# T1 sequence (P11229 1-460): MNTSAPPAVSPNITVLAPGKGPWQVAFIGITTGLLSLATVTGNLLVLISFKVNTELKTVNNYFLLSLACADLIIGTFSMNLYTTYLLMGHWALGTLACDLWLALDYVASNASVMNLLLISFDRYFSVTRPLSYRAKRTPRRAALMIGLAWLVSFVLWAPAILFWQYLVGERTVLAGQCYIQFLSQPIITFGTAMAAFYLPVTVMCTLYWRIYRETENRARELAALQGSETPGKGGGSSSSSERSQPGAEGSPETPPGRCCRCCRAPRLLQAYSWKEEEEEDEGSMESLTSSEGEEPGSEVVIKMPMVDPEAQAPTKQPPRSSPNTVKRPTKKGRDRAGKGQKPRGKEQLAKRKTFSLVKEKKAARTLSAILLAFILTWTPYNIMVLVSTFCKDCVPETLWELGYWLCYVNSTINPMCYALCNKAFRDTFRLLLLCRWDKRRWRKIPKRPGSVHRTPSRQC
# Assay: Measurement of M1 receptor positive allosteric modulator (M1PAM) activity, calcium fluorescence (FLIPRtetra) with acetylcholine at EC20
# Format: cell-based
# Conditions: for activity (%) at 10 μM: 10 μM test compound, 100% = acetylcholine 1 μM, 0% = DMSO, acetylcholine at EC20; for EC50: inflection point of concentration-dependent curve, CHO-K1 cells expressing hCHRM1, acetylcholine at EC20 (final 0.6-0.8 nM), read-out: IP value
# Method in brief: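 CHO-K1 cells stably expressing hCHRM1, Fluo-4 AM loaded; compound added with acetylcholine at EC20 (final 0.6-0.8 nM), fluorescence read 1 min. Activity normalised to 1 μM acetylcholine (100%) and DMSO (0%); IP values taken as inflection point of the concentration-response curve.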
activity (%) at 10 μM,EC50,Structure (SMILES)
107%,180 nM,"Cc1cc2c(cc1Cc1ccc(-n3cccn3)cc1)C(=O)N(c1c(F)cccc1C#N)C2 [Example 7, 3-fluoro-2-(5-methyl-1-oxo-6-(4-(1H-pyrazol-1-yl)benzyl)-1,3-dihydro-2H-isoindol-2-yl)benzonitrile]"
91%,47 nM,"COc1ccc(Cc2cc3c(c(Cl)c2C)CN([C@H]2CCC[C@@H]2O)C3=O)cc1 [Example 152, 4-chloro-2-((1S,2S)-2-hydroxycyclopentyl)-6-(4-methoxybenzyl)-5-methylisoindolin-1-one]"
95%,30 nM,"COc1ccc(Cc2cc3c(cc2C)CN([C@H]2CCCC[C@@H]2O)C3=O)cc1 [Example 167, 2-((1S,2S)-2-hydroxycyclohexyl)-6-(4-methoxybenzyl)-5-methylisoindolin-1-one]"
103%,16 nM,"Cc1cc(-c2ccc(Cc3cc4c(cc3C)CN([C@H]3CCCC[C@@H]3O)C4=O)cc2)ccn1 (racemic) [Example 99, rac-2-(trans-2-hydroxycyclohexyl)-5-methyl-6-(4-(2-methylpyridin-4-yl)benzyl)isoindolin-1-one]"
103%,3.9 nM,"Cc1c(Cc2ccc(-n3cccn3)cc2)cc2c(c1C)CN([C@H]1COCC[C@@H]1O)C2=O (racemic) [Example 35, rac-2-(trans-4-hydroxytetrahydro-2H-pyran-3-yl)-4,5-dimethyl-6-(4-(1H-pyrazol-1-yl)benzyl)-2,3-dihydro-1H-isoindol-1-one]"
100%,22 nM,"COc1ccc(Cc2cc3c(c(F)c2C)CN([C@H]2CCCC[C@@H]2O)C3=O)cc1 [Example 154, 4-fluoro-2-((1S,2S)-2-hydroxycyclohexyl)-6-(4-methoxybenzyl)-5-methylisoindolin-1-one]"
100%,56 nM,"Cc1c(Cc2ccc(-c3ccn(C)n3)cc2F)cc2c(c1C)CN([C@H]1CCC[C@@H]1O)C2=O (racemic) [Example 71, rac-6-(2-fluoro-4-(1-methyl-1H-pyrazol-3-yl)benzyl)-2-(trans-2-hydroxycyclopentyl)-4,5-dimethylisoindolin-1-one]"
98%,85 nM,"O=C1c2cc(Cc3ccc(-n4cccn4)cc3)c(C(F)(F)F)c(Cl)c2CN1[C@H]1CCC[C@@H]1O (racemic) [Example 88, rac-4-chloro-2-(trans-2-hydroxycyclopentyl)-6-(4-(1H-pyrazol-1-yl)benzyl)-5-(trifluoromethyl)isoindolin-1-one]"
